Experimental data published in patent publication US9080214B2, “Genetic markers for efficacy of iloperidone in the treatment of psychotic symptoms” (Vanda Pharmaceuticals, Inc., priority 2007, dated 2015).

Test system: individuals diagnosed with schizophrenia
Test: Change in PANSS-P subscale by SNP genotype, patients on iloperidone 24 mg/day b.i.d. for 28 days (MMRM)
Assay type: in vivo, human
Text: Earlier studies investigated an association between a polymorphism in the CNTF gene and iloperidone efficacy as well as associations between CYP2D6 and KCNQ1 genotypes and changes in QT interval following the administration of iloperidone. The present study involved the genotyping of DNA samples collected from 426 individuals diagnosed with schizophrenia in an attempt to identify additional SNPs associated with iloperidone efficacy. Each sample was genotyped at more than 500,000 SNP loci using the GeneChip® Human Mapping 500K Array Set (Affymetrix, Santa Clara, Calif.) and using assays developed in-house. Approximately half of the participants in the study were administered 24 mg/day of iloperidone, b.i.d., for 28 days. About 25% of the patients were administered ziprasidone. The remaining participants were administered a placebo. Three analyses of the PANSS-T were conducted. 1) A two-step approach where samples were randomly split into 2 groups of iloperidone-treated patients used to discover SNPs associated with changed in PANSS-T (Discovery phase) and a second group to confirm the 100 most significant SNPs (Confirmatory phase). 2) A one-step approach using the Last Observation Carried Forward (LOCF) PANSS-T data of all iloperidone-treated patients. For each SNP, the most parsimonious genetic model (e.g., homozygous for one allele v. all other genotypes [i.e., AA v. AB and BB], heterozygous v. homozygous [i.e., AB v. AA and BB]) was established with respect to iloperidone efficacy using a one-way analysis of variance (ANOVA). 3) A Mixed-effects Model Repeated Measures (MMRM) analysis was subsequently conducted using the best genetic model of each SNP in the MMRM model. MMRM analyses were also conducted with the PANSS subscales PANSS-P, PANSS-N, and PANSS-GP. The SNPs with a statistically significant association in all 3 analyses of PANSS-T, as well as the best of each analysis were considered significant findings and are listed below in Table 1. Results for each of these SNPs with the PANSS-T scales and with the three subscales PANSS-P, PANSS-N, and PANSS-GP are shown in Tables 2, 3, 4, and 5, respectively. […] In the present case of iloperidone efficacy, it is likely that different markers are more specifically associated with one or a few specific clinical symptoms, which is reflected in the improvement measured in separate subscales.

## COc1cc(C(C)=O)ccc1OCCCN1CCC(c2noc3cc(F)ccc23)CC1 [iloperidone, 1-[4-[3-[4-(6-fluoro-1,2-benzisoxazol-3-yl)-1-piperidinyl]propoxy]-3-methoxyphenyl]ethanone]
SNP_A-1819750 (CREG1) genotype A_A
  mean of change in PANSS-P: −5.31
SNP_A-1819750 (CREG1) genotype A_B*
  mean of change in PANSS-P: −4.28
SNP_A-1819750 (CREG1) genotype B_B
  mean of change in PANSS-P: −5.02
SNP_A-1819750 (CREG1) genotype nonAB**
  mean of change in PANSS-P: −5.11
SNP_A-1860353 (RAP1B) genotype A_A**
  mean of change in PANSS-P: −9.20
SNP_A-1860353 (RAP1B) genotype A_B
  mean of change in PANSS-P: −4.42
SNP_A-1860353 (RAP1B) genotype B_B
  mean of change in PANSS-P: −4.28
SNP_A-1860353 (RAP1B) genotype nonAA*
  mean of change in PANSS-P: −4.30
SNP_A-1934663 genotype A_A
  mean of change in PANSS-P: −5.65
SNP_A-1934663 genotype A_B
  mean of change in PANSS-P: −5.78
SNP_A-1934663 genotype B_B*
  mean of change in PANSS-P: −3.40
SNP_A-1934663 genotype nonBB**
  mean of change in PANSS-P: −5.75
SNP_A-1973093 (KIAA0040) genotype A_A
  mean of change in PANSS-P: −5.12
SNP_A-1973093 (KIAA0040) genotype A_B*
  mean of change in PANSS-P: −2.58
SNP_A-1973093 (KIAA0040) genotype B_B
  mean of change in PANSS-P: −5.64
SNP_A-1973093 (KIAA0040) genotype nonAB**
  mean of change in PANSS-P: −5.54
SNP_A-1975928 (SLC2A9) genotype A_A
  mean of change in PANSS-P: −4.60
SNP_A-1975928 (SLC2A9) genotype A_B
  mean of change in PANSS-P: −4.79
SNP_A-1975928 (SLC2A9) genotype B_B*
  mean of change in PANSS-P: 6.19
SNP_A-1975928 (SLC2A9) genotype nonBB**
  mean of change in PANSS-P: −4.65
SNP_A-1987915 (GPR126) genotype A_A
  mean of change in PANSS-P: −3.53
SNP_A-1987915 (GPR126) genotype A_B
  mean of change in PANSS-P: −3.43
SNP_A-1987915 (GPR126) genotype B_B**
  mean of change in PANSS-P: −5.95
SNP_A-1987915 (GPR126) genotype nonBB*
  mean of change in PANSS-P: −3.45
SNP_A-2007721 (LOC58486) genotype A_A
  mean of change in PANSS-P: −1.70
SNP_A-2007721 (LOC58486) genotype A_B**
  mean of change in PANSS-P: −7.48
SNP_A-2007721 (LOC58486) genotype B_B
  mean of change in PANSS-P: −3.42
SNP_A-2007721 (LOC58486) genotype nonAB*
  mean of change in PANSS-P: −3.41
SNP_A-2044214 (HNT) genotype A_A
  mean of change in PANSS-P: −5.77
SNP_A-2044214 (HNT) genotype A_B*
  mean of change in PANSS-P: −2.08
SNP_A-2044214 (HNT) genotype B_B
  mean of change in PANSS-P: −5.64
SNP_A-2044214 (HNT) genotype nonAB**
  mean of change in PANSS-P: −5.73
SNP_A-2048427 (NPAS3) genotype A_A
  mean of change in PANSS-P: −6.16
SNP_A-2048427 (NPAS3) genotype A_B
  mean of change in PANSS-P: −6.26
SNP_A-2048427 (NPAS3) genotype B_B*
  mean of change in PANSS-P: −3.61
SNP_A-2048427 (NPAS3) genotype nonBB**
  mean of change in PANSS-P: −6.24
SNP_A-2070454 (NKX2-5) genotype A_A
  mean of change in PANSS-P: −4.04
SNP_A-2070454 (NKX2-5) genotype A_B
  mean of change in PANSS-P: −3.89
SNP_A-2070454 (NKX2-5) genotype B_B**
  mean of change in PANSS-P: −5.75
SNP_A-2070454 (NKX2-5) genotype nonBB*
  mean of change in PANSS-P: −3.94
SNP_A-2076797 (NUDT9P1) genotype A_A
  mean of change in PANSS-P: −2.57
SNP_A-2076797 (NUDT9P1) genotype A_B**
  mean of change in PANSS-P: −6.55
SNP_A-2076797 (NUDT9P1) genotype B_B
  mean of change in PANSS-P: −2.27
SNP_A-2076797 (NUDT9P1) genotype nonAB*
  mean of change in PANSS-P: −2.42
SNP_A-2103099 (HTR1A) genotype A_A
  mean of change in PANSS-P: −6.05
SNP_A-2103099 (HTR1A) genotype A_B*
  mean of change in PANSS-P: −2.88
SNP_A-2103099 (HTR1A) genotype B_B
  mean of change in PANSS-P: −5.88
SNP_A-2103099 (HTR1A) genotype nonAB**
  mean of change in PANSS-P: −5.95
SNP_A-2120958 genotype A_A
  mean of change in PANSS-P: −4.97
SNP_A-2120958 genotype A_B
  mean of change in PANSS-P: −4.92
SNP_A-2120958 genotype B_B*
  mean of change in PANSS-P: 1.49
SNP_A-2120958 genotype nonBB**
  mean of change in PANSS-P: −4.95
SNP_A-2170121 (C6) genotype A_A
  mean of change in PANSS-P: −3.49
SNP_A-2170121 (C6) genotype A_B**
  mean of change in PANSS-P: −6.98
SNP_A-2170121 (C6) genotype B_B
  mean of change in PANSS-P: −4.26
SNP_A-2170121 (C6) genotype nonAB*
  mean of change in PANSS-P: −3.56
SNP_A-2274533 (LZTS1) genotype A_A**
  mean of change in PANSS-P: −5.34
SNP_A-2274533 (LZTS1) genotype A_B
  mean of change in PANSS-P: −2.64
SNP_A-2274533 (LZTS1) genotype B_B
  mean of change in PANSS-P: −2.63
SNP_A-2274533 (LZTS1) genotype nonAA*
  mean of change in PANSS-P: −2.63
SNP_A-2283283 (XKR4) genotype A_A*
  mean of change in PANSS-P: −1.85
SNP_A-2283283 (XKR4) genotype A_B
  mean of change in PANSS-P: −4.92
SNP_A-2283283 (XKR4) genotype B_B
  mean of change in PANSS-P: −5.41
SNP_A-2283283 (XKR4) genotype nonAA**
  mean of change in PANSS-P: −5.12
SNP_A-2284243 (GRIA4) genotype A_A
  mean of change in PANSS-P: −5.09
SNP_A-2284243 (GRIA4) genotype A_B
  mean of change in PANSS-P: −5.09
SNP_A-2284243 (GRIA4) genotype B_B*
  mean of change in PANSS-P: −2.11
SNP_A-2284243 (GRIA4) genotype nonBB**
  mean of change in PANSS-P: −5.09
SNP_A-4204396 (CDH13) genotype A_A
  mean of change in PANSS-P: −4.76
SNP_A-4204396 (CDH13) genotype A_B
  mean of change in PANSS-P: −4.99
SNP_A-4204396 (CDH13) genotype B_B*
  mean of change in PANSS-P: 1.63
SNP_A-4204396 (CDH13) genotype nonBB**
  mean of change in PANSS-P: −4.85
SNP_A-4212785 (PPP1R3B) genotype A_A*
  mean of change in PANSS-P: 4.95
SNP_A-4212785 (PPP1R3B) genotype A_B
  mean of change in PANSS-P: −4.78
SNP_A-4212785 (PPP1R3B) genotype B_B
  mean of change in PANSS-P: −4.70
SNP_A-4212785 (PPP1R3B) genotype nonAA**
  mean of change in PANSS-P: −4.73
SNP_A-4230979 (ASB3) genotype A_A
  mean of change in PANSS-P: −2.80
SNP_A-4230979 (ASB3) genotype A_B
  mean of change in PANSS-P: −3.63
SNP_A-4230979 (ASB3) genotype B_B**
  mean of change in PANSS-P: −5.84
SNP_A-4230979 (ASB3) genotype nonBB*
  mean of change in PANSS-P: −3.45
SNP_A-4256833 (MLCK) genotype A_A
  mean of change in PANSS-P: −4.59
SNP_A-4256833 (MLCK) genotype A_B*
  mean of change in PANSS-P: −2.78
SNP_A-4256833 (MLCK) genotype B_B
  mean of change in PANSS-P: −5.14
SNP_A-4256833 (MLCK) genotype nonAB**
  mean of change in PANSS-P: −5.10
SNP_A-4258279 (RRM1) genotype A_A
  mean of change in PANSS-P: −5.01
SNP_A-4258279 (RRM1) genotype A_B*
  mean of change in PANSS-P: −0.85
SNP_A-4258279 (RRM1) genotype B_B
  mean of change in PANSS-P: −5.25
SNP_A-4258279 (RRM1) genotype nonAB**
  mean of change in PANSS-P: −5.24
